Reference: patent US10858364B2, “Imidazopyrazine inhibitors of Bruton's tyrosine kinase” (Acerta Pharma B.V., priority 2016, dated 2020)

Assays:
anti-IgD-induced CD69 = assay: Human whole blood anti-IgD-induced CD69 assay; format: cell-based; conditions: B-cell, CD19+ B cells, 18h anti-IgD, read-out: hWB: anti-IgD-induced CD69 EC50
Experimental: WB assay: Forty-five μL blood was diluted 1:1 in RPMI+1% FBS and incubated with test compound, as described above. Blood cells were stimulated with 10 μg/mL mouse anti-human anti-IgD antibody (BD Biosciences, final concentration in assay 10 μg/mL) and incubated for 18h. Cells were stained with CD69-FITC, CD86-PE, and CD19-BV421 (BD Biosciences) for 15 minutes at room temperature, followed by RBCs lysis with FACS Lysing Solution (BD Biosciences). Cells were washed 3 times with 1 mL/well PBS+0.5% BSA, followed by flow cytometric analyses. Median fluorescence intensity values for CD69 were obtained from the CD19+B lymphocyte gate using FCSExpress analyses software (De Novo Software). EC50 values were determined by curve fitting of the experimental results using Dotmatics.
The potency of BTK inhibitors in primary B cells can be assessed in assays that evaluate functional changes after BCR-activation in the presence of inhibitor. Inhibition of specific phosphorylated epitopes on signaling proteins and more distal measures of BCR activation such as increased expression of CD86 (B7-2) and CD69 on the cell surface can be measured by flow cytometry (see Report R2013003A). In this study, effects of M27 on CD69 expression were assessed.

ITK = ITK (Homo sapiens (Human), UniProt Q08881); assay: ITK enzyme activity, IMAP assay; format: biochemical; conditions: 60 min pre-incubation, 5 μM ATP
ITK, sequence (Q08881 whole entry): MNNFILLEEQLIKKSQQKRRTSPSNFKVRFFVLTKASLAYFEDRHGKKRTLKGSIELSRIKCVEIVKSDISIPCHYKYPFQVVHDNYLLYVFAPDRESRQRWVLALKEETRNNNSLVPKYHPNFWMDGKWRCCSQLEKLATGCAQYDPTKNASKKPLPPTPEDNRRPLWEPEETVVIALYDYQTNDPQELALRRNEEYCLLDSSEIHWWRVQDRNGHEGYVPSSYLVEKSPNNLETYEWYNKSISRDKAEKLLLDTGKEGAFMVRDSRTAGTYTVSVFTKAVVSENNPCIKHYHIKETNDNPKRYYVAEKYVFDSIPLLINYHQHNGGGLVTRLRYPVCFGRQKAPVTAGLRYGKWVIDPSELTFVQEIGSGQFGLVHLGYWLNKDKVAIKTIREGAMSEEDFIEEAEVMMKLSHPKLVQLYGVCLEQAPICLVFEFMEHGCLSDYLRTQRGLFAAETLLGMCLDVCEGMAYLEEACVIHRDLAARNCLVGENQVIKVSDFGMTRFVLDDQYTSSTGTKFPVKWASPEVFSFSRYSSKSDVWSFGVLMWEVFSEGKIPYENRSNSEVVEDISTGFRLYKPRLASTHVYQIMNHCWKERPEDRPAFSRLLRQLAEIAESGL
Experimental: ITK enzyme activity is measured using the IMAP (immobilized metal ion affinity-based fluorescence polarization) assay as outlined below.
ITK enzyme (Millipore #14-660M) is diluted to 0.2 U/mL in KR buffer (10 mM Tris-HCl, 10 mM MgCl2, 0.01% Tween-20, 0.1% NaN3, 1 mM DTT, 2 mM MnCl2, pH 7.5)
Serial dilutions log 10 from 2 mM to 63.2 nM of test compounds are made in 100% DMSO. The dilutions in DMSO are then diluted 50-fold in KR-buffer. Final compound concentration range in the assay ranged from 10 μM to 0.316 nM.
The assay is performed as follows: 5 μL/well of test compound in KR buffer (final DMSO concentration in the assay is 1%) is mixed with 5 μL/well of 0.2 U/mL ITK enzyme (final concentration in the assay is 0.05 U/mL (8.4 nM)). Test compounds and ITK enzyme are pre-incubated 60 minutes at room temperature, before adding 5 μL/well of 200 nM Fluorescin labeled substrate peptide (Blk/Lyntide substrate # R8124, Molecular Devices) in KR-buffer. Final peptide substrate concentration in assay is 50 nM. The kinase assay is started by adding 5 μL/well of 20 μM ATP in KR-buffer (final ATP concentration is 5 μM ATP, Km ATP in ITK IMAP assay). […] IC50 values are determined by curve fitting of the experimental results in Dotmatics.

BTK = BTK (Homo sapiens (Human), UniProt Q06187); assay: BTK enzyme activity, IMAP assay; format: biochemical; conditions: 60 min pre-incubation, 5 μM ATP
BTK, sequence (Q06187 whole entry): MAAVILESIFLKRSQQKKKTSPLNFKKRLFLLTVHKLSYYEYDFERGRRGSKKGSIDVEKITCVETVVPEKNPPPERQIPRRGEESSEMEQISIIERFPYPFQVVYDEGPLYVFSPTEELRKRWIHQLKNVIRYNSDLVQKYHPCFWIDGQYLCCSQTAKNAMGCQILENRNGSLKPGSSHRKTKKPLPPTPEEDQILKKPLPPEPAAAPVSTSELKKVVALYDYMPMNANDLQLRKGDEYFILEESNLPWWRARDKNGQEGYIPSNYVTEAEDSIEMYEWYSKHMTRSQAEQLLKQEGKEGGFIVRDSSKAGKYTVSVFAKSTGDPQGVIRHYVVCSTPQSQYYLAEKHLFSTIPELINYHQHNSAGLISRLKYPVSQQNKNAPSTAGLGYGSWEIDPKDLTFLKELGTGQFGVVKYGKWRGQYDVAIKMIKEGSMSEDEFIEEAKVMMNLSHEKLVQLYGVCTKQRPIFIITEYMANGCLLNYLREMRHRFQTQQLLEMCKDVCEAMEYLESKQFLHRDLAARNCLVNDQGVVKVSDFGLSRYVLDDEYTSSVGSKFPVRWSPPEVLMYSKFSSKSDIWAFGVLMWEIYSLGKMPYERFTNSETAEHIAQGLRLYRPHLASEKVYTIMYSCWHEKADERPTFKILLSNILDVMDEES
Experimental: BTK enzyme activity is measured using the IMAP (immobilized metal ion affinity-based fluorescence polarization) assay as outlined below. BTK enzyme (His-BTK (Millipore catalog #14-552)), is diluted to 0.4 U/mL in KR buffer (10 mM Tris-HCl, 10 mM MgCl2, 0.01% Tween-20, 0.05% NaN3, 1 mM DTT, 2 mM MnCl2, pH 7.2). Serial dilutions log 10 from 2 mM to 63.2 nM of test compounds are made in 100% DMSO. The dilutions in DMSO are then diluted 50-fold in KR-buffer. Final compound concentration range in the assay ranged from 10 μM to 0.316 nM. The assay is performed as follows: 5 μL/well of test compound in KR buffer (final DMSO concentration in the assay is […]) is mixed with 5 µl/well of 0.4 U/mL BTK enzyme (final concentration in the assay is 0.1 U/mL). […] After 60 min incubation at room temperature in the dark the FP signal is read. Fluorescence at 535 nm is measured using parallel and perpendicular filters to determine differences in rotation due to binding of the phosphorylated substrate peptide to the beads. Values are calculated as percentage of the difference in readout (AmPi) of the controls with and without ATP. IC50 values are determined by curve fitting of the experimental results in Dotmatics.

Row | EC50 (anti-IgD-induced CD69) [nM] | IC50 (ITK) [nM] | IC50 (BTK) [nM] | SMILES
1 | 64 ± 6 | > 10000 | 5 ± 1 | CC#CC(=O)NCCCC(=O)c1nc(-c2ccc(C(=O)Nc3ccccn3)cc2)c2c(N)nccn12 [Formula (I), 4-(8-amino-3-(4-(but-2-ynamido)butanoyl)imidazo[1,5-a]pyrazin-1-yl)-N-(pyridin-2-yl)benzamide]
2 | 137 ± 36 | > 10000 | 9.3 | CC#CC(=O)NCCCC(=O)c1nc(-c2ccc(C(=O)Nc3ccccn3)c(OC)c2)c2c(N)nccn12 [Formula (II), 4-(8-amino-3-(4-(but-2-ynamido)butanoyl)imidazo[1,5-a]pyrazin-1-yl)-2-methoxy-N-(pyridin-2-yl)benzamide]
